In patent US11584744B2 (UNIVERSITY OF WASHINGTON, priority 2017, dated 2023):
pEC50, pIC50: −log10 of the molar value. Converted amounts (≈) assume the structure as drawn. Where two headings read alike, the source gives them in different places.

Experiments:
[1] = target: T1, MetRS (T. brucei) (Trypanosoma brucei brucei, UniProt Q38C91); experiment: MetRS (T. brucei) enzyme inhibition; assay type: biochemical
T1 sequence (Q38C91 1-773): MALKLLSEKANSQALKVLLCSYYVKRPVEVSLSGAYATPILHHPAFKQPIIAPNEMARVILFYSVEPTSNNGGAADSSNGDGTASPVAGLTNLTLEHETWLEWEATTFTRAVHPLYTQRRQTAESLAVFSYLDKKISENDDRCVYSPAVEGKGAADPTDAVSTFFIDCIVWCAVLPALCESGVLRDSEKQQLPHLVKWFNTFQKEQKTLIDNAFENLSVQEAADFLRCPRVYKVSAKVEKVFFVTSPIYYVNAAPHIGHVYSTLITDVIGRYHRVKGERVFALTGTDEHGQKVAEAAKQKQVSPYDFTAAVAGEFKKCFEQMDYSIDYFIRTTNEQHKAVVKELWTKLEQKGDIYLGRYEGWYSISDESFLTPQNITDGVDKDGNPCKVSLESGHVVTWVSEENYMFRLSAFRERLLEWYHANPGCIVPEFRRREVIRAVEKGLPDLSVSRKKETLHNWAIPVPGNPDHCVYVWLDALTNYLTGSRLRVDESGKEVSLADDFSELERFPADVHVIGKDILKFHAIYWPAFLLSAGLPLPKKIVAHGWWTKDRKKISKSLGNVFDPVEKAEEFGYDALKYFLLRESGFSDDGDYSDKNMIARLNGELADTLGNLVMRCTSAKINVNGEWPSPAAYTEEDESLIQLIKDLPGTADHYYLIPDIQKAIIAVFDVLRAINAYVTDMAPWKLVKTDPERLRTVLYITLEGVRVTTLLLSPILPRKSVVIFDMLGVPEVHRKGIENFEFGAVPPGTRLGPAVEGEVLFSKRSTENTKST

[2] = target: MetRS (C. parvum) (Cryptosporidium parvum, UniProt Q5CVN0); experiment: MetRS (C. parvum) enzyme inhibition; assay type: biochemical; conditions: read-out: (C) MetRS (C. parvum) IC50
Chain of MetRS (C. parvum) (Q5CVN0 entry or part of it): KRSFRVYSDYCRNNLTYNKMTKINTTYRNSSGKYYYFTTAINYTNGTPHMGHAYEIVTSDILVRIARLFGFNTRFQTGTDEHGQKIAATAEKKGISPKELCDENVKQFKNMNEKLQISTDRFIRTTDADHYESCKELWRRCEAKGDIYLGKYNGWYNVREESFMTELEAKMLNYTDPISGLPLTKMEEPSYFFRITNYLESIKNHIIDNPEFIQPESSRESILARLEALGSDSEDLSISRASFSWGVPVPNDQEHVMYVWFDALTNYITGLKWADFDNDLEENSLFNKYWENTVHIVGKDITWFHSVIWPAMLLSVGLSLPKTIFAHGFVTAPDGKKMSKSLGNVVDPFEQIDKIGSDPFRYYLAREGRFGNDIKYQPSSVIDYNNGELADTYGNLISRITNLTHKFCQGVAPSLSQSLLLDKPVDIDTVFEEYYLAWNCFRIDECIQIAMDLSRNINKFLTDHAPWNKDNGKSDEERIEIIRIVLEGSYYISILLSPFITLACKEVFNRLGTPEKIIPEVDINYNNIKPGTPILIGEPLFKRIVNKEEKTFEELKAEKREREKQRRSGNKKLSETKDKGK

[3] = test system: T. brucei; experiment: T. brucei growth inhibition; assay type: cell-based, Trypanosoma brucei; conditions: Trypanosoma brucei; read-out: (D) T. brucei EC50
[4] = test system: T. cruzi; experiment: T. cruzi growth inhibition; assay type: cell-based, Trypanosoma cruzi; conditions: read-out: (E) T. cruzi EC50
[5] = test system: S. aureus MSSA (ATCC 29213); experiment: MIC susceptibility testing; assay type: cell-based, Staphylococcus aureus; conditions: S. aureus ATCC 29213; for MIC: Staphylococcus aureus, read-out: (F) S. aureus (ATCC 29213) MIC
From the text: Media and culture conditions. Mueller Hinton broth (MHB), cation adjusted Mueller Hinton broth (CA-MHB), and Brain Heart Infusion broth (BHI) were purchased from Becton Dickinson (Franklin Lakes, N.J.). Tryptic soy agar (TSA) plates, TSA with 5% sheep blood plates, and CA-MHB with 3% laked horse blood were purchased from Remel (San Diego, Calif.). MHB was used to assay all Staphylococcus aureus strains. CA-MHB was used for Staphylococcus epidermidis, Enterococcus faecalis, Enterococcus faecium, Escherichia coli, and Pseudomonas aeruginosa. CA-MHB supplemented with 3% laked horse blood was used for Streptococcus pneumoniae and Streptococcus pyogenes. Staphylococcus, Enterococcus, Escherichia, and Pseudomonas strains were cultured at 37° C. with ambient air. Streptococcus strains were cultured in 37° C. with 5% CO2. Separate conditions for radiolabeled precursor uptake assays are described below.
Susceptibility testing: Minimum inhibitory concentration (MIC) determinations were performed in triplicate in 96-well round bottom microtiter plates (Corning, Corning N.Y.) as described by the Clinical and Laboratory Standards Institute (CLSI). Serial two-fold dilutions of compounds were added to plates in 50 μL volumes. An additional 50 μL of media containing bacterial cells (1×10^6 CFUs/mL) was then added to each well. Maximum DMSO concentrations were 0.5%. Plates were incubated at 37° C. for at least 18 h before reading the susceptibility result by optical absorbance (OD600) using a BioTek ELx800. The lowest concentration causing ≥90% growth inhibition compared to the untreated control was recorded as the MIC (and also corresponded to the visual MIC). MICs were measured at least twice and the higher value (if different) was recorded herein.

**Q.** `CSc1ncc(Cc2ccc(Cl)cc2Cl)n1Cc1nc2nc(Cl)ccc2[nH]1` [Compound 2113, 1-({5-chloro-1H-imidazo[4,5-b]pyridin-2-yl}methyl)-5-[(2,4-dichlorophenyl)methyl]-2-(methylsulfanyl)-1H-imidazole] was tested. Which pIC50 [1] did it give?
**A.** 5.70

**Q.** And the pIC50 [2]?
**A.** < 6.00

**Q.** And the pEC50 [3]?
**A.** 5.71

**Q.** `CCn1c(Cc2ccc(Cl)cc2Cl)cn(CCc2nc3ccc(F)nc3[nH]2)c1=O` [Compound 2121, 4-[(2,4-dichlorophenyl)methyl]-3-ethyl-1-(2-{5-fluoro-1H-imidazo[4,5-b]pyridin-2-yl}ethyl)-2,3-dihydro-1H-imidazol-2-one] was tested. Which pIC50 [1] did it give?
**A.** 7.39

**Q.** And the pIC50 [2]?
**A.** 6.32

**Q.** What about the pEC50 [3] of the same compound?
**A.** 5.87

**Q.** `FC(F)(F)c1ccc(-c2cccc3nc(Cc4nc5nc(Cl)ccc5[nH]4)cn23)c(Cl)c1` [Compound 2126, 2-({5-chloro-1H-imidazo[4,5-b]pyridin-2-yl}methyl)-5-[2-chloro-4-(trifluoromethyl)phenyl]imidazo[1,2-a]pyridine] was tested. Which pIC50 [1] did it give?
**A.** 7.40

**Q.** And the pIC50 [2]?
**A.** < 6.00

**Q.** And the pEC50 [3]?
**A.** 5.75

**Q.** With `Fc1ccc2[nH]c(Cc3cn4c(-c5ccc(C(F)(F)F)cc5Cl)cccc4n3)nc2n1` [Compound 2127, 5-[2-chloro-4-(trifluoromethyl)phenyl]-2-({5-fluoro-1H-imidazo[4,5-b]pyridin-2-yl}methyl)imidazo[1,2-a]pyridine] as the compound, how does the pIC50 [1] read?
**A.** 7.20

**Q.** And the pIC50 [2]?
**A.** < 6.00

**Q.** What about the pEC50 [3] of the same compound?
**A.** < 5.70

**Q.** `Clc1cc(Cl)cc(-c2cccc3nc(Cc4nc5nc(Cl)ccc5[nH]4)cn23)c1` [Compound 2130, 2-({5-chloro-1H-imidazo[4,5-b]pyridin-2-yl}methyl)-5-(3,5-dichlorophenyl)-imidazo[1,2-a]pyridine] was tested. Which pIC50 [1] did it give?
**A.** 6.72

**Q.** And the pIC50 [2]?
**A.** < 6.00

**Q.** What about the pEC50 [3] of the same compound?
**A.** 6.71

**Q.** How did the pIC50 [1] turn out when `Fc1ccc2[nH]c(Cc3cn4c(-c5cc(Cl)cc(Cl)c5)cccc4n3)nc2n1` [Compound 2131, 5-(3,5-dichlorophenyl)-2-({5-fluoro-1H-imidazo[4,5-b]pyridin-2-yl}methyl)-imidazo[1,2-a]pyridine] was run?
**A.** 6.49

**Q.** And the pIC50 [2]?
**A.** 6.09

**Q.** What about the pEC50 [3] of the same compound?
**A.** 6.71

**Q.** How did the pIC50 [1] turn out when `COc1cc(Cl)c(-c2cccc3nc(Cc4nc5nc(Cl)ccc5[nH]4)cn23)cc1Cl` [Compound 2132, 2-({5-chloro-1H-imidazo[4,5-b]pyridin-2-yl}methyl)-5-(2,5-dichloro-4-methoxyphenyl)imidazo[1,2-a]pyridine] was run?
**A.** > 7.40

**Q.** And the pIC50 [2]?
**A.** 6.18

**Q.** And the pEC50 [3]?
**A.** 6.29

**Q.** `COc1cc(Cl)c(-c2cccc3nc(Cc4nc5nc(F)ccc5[nH]4)cn23)cc1Cl` [Compound 2133, 5-(2,5-dichloro-4-methoxyphenyl)-2-({5-fluoro-1H-imidazo[4,5-b]pyridin-2-yl}methyl)imidazo[1,2-a]pyridine] was tested. Which pIC50 [1] did it give?
**A.** > 7.40

**Q.** What about the pIC50 [2] of the same compound?
**A.** 6.45

**Q.** What about the pEC50 [3] of the same compound?
**A.** 6.07

**Q.** Which results are given for `CCn1c(Cc2ccc(Cl)cc2Cl)cn(C(C)c2nc3ccc(Cl)nc3[nH]2)c1=O` (stereo not shown) [Compound 2142, 1-(1-{5-chloro-1H-imidazo[4,5-b]pyridin-2-yl}ethyl)-4-[(2,4-dichlorophenyl)-methyl]-3-ethyl-2,3-dihydro-1H-imidazol-2-one]?
**A.** pIC50 [1]: > 7.40; pIC50 [2]: 7.05; pEC50 [3]: 6.31

**Q.** With `CCn1c(Cc2ccc(Cl)cc2Cl)cn(C(C)c2nc3nc(F)ccc3[nH]2)c1=O` (stereo not shown) [Compound 2143, 4-[(2,4-dichlorophenyl)methyl]-3-ethyl-1-(1-{5-fluoro-1H-imidazo[4,5-b]pyridin-2-yl}ethyl)-2,3-dihydro-1H-imidazol-2-one] as the compound, how does the pIC50 [1] read?
**A.** > 7.40

**Q.** What about the pIC50 [2] of the same compound?
**A.** 7.02

**Q.** And the pEC50 [3]?
**A.** 6.09

**Q.** How did the pIC50 [1] turn out when `COc1ccc(-c2cccn3cc(Cc4nc5nc(F)ccc5[nH]4)nc23)c(Cl)c1` [Compound 2148, 8-(2-chloro-4-methoxyphenyl)-2-({5-fluoro-1H-imidazo[4,5-b]pyridin-2-yl}methyl)imidazo[1,2-a]pyridine] was run?
**A.** 7.22

**Q.** What about the pIC50 [2] of the same compound?
**A.** 6.00

**Q.** What about the pEC50 [3] of the same compound?
**A.** < 5.70

**Q.** `COc1ccc(-c2cccn3cc(Cc4nc5nc(Cl)ccc5[nH]4)nc23)c(Cl)c1` [Compound 2149, 2-({5-chloro-1H-imidazo[4,5-b]pyridin-2-yl}methyl)-8-(2-chloro-4-methoxyphenyl)imidazo[1,2-a]pyridine] was tested. Which pIC50 [1] did it give?
**A.** 7.35

**Q.** And the pIC50 [2]?
**A.** < 6.00

**Q.** What about the pEC50 [3] of the same compound?
**A.** < 5.70

**Q.** With `COc1ccc(-c2cccn3c(SC)c(Cc4nc5nc(Cl)ccc5[nH]4)nc23)c(Cl)c1` [Compound 2150, 2-({5-chloro-1H-imidazo[4,5-b]pyridin-2-yl}methyl)-8-(2-chloro-4-methoxyphenyl)-3-(methylsulfanyl)imidazo[1,2-a]pyridine] as the compound, how does the pIC50 [1] read?
**A.** > 7.40

**Q.** What about the pIC50 [2] of the same compound?
**A.** 6.33

**Q.** And the pEC50 [3]?
**A.** 6.05

**Q.** What does the source list for `COc1ccc(-c2cccn3c(S(C)(=O)=O)c(Cc4nc5nc(Cl)ccc5[nH]4)nc23)c(Cl)c1` [Compound 2151, 2-({5-chloro-1H-imidazo[4,5-b]pyridin-2-yl}methyl)-8-(2-chloro-4-methoxyphenyl)-3-methanesulfonylimidazo[1,2-a]pyridine]?
**A.** pIC50 [1]: > 7.40; pIC50 [2]: 6.21; pEC50 [3]: 6.44

**Q.** Which results are given for `Clc1ccc(Cc2cn(Cc3nc4nc(Cl)ccc4[nH]3)c(SCc3ccccn3)n2)c(Cl)c1` [Compound 2157, 2-({[1-({5-chloro-1H-imidazo[4,5-b]pyridin-2-yl}methyl)-4-[(2,4-dichlorophenyl)methyl]-1H-imidazol-2-yl]sulfanyl}methyl)pyridine]?
**A.** pIC50 [1]: > 7.40; pIC50 [2]: 6.97; pEC50 [3]: < 6.70

**Q.** How did the pEC50 ([4]; Trypanosoma cruzi) turn out when `COc1ccc(Cc2cn(Cc3nc4nc(F)ccc4[nH]3)c(=O)n2CC(F)F)c(Cl)c1` [Compound 2259, 4-[(2-chloro-4-methoxyphenyl)methyl]-3-(2,2-difluoroethyl)-1-({5-fluoro-1H-imidazo[4,5-b]pyridin-2-yl}methyl)-2,3-dihydro-1H-imidazol-2-one] was run?
**A.** 7.49

**Q.** What about the pEC50 [4] of the same compound?
**A.** 7.38

**Q.** And the MIC [5]?
**A.** 0.422 µg/mL (≈ 0.934 µM)

**Q.** How did the MIC [5] turn out when `COc1cc(Cl)c(-c2cccc3nc(Nc4nc5nc(F)ccc5[nH]4)cn23)cc1OC` [Compound 2267, 5-(2-chloro-4,5-dimethoxyphenyl)—N-{5-fluoro-1H-imidazo[4,5-b]pyridin-2-yl}imidazo[1,2-a]pyridin-2-amine] was run?
**A.** > 2 µg/mL

**Q.** What about the pEC50 [3] of the same compound?
**A.** < 5.70

**Q.** Which “(F) S. aureus (ATCC 29213) MIC” value [5] does the source give for `Oc1cc(-c2cccc3nc(Cc4nc5nc(Cl)ccc5[nH]4)cn23)c(Cl)cc1Cl` [Compound 2268, 2,4-dichloro-5-[2-({5-chloro-1H-imidazo[4,5-b]pyridin-2-yl}methyl)imidazo[1,2-a]pyridin-5-yl]phenol] here?
**A.** 0.345 µg/mL

**Q.** What about the MIC [5] of the same compound?
**A.** 0.69 µg/mL (≈ 1.55 µM)

**Q.** What about the pEC50 [3] of the same compound?
**A.** 6.73

**Q.** Which results are given for `CCOc1cc(-c2cccc3nc(Cc4nc5nc(Cl)ccc5[nH]4)cn23)c(Cl)cc1Cl` [Compound 2269, 2-({5-chloro-1H-imidazo[4,5-b]pyridin-2-yl}methyl)-5-(2,4-dichloro-5-ethoxyphenyl)imidazo[1,2-a]pyridine]?
**A.** (F) S. aureus (ATCC 29213) MIC [5]: 1.44 µg/mL; MIC [5]: 1.77 µg/mL (≈ 3.74 µM); pEC50 [3]: 6.99

**Q.** With `CCn1c(Cc2cc(OC)c(OC)cc2Cl)cn(Cc2nc3nc(Cl)ccc3[nH]2)c1=O` [Compound 2275, 1-({5-chloro-1H-imidazo[4,5-b]pyridin-2-yl}methyl)-4-[(2-chloro-4,5-dimethoxyphenyl)methyl]-3-ethyl-2,3-dihydro-1H-imidazol-2-one] as the compound, how does the pEC50 [3] read?
**A.** > 9.04

**Q.** With `CCn1c(Cc2ccc(OC)cc2Cl)cn(Cc2nc3cnc(Cl)nc3[nH]2)c1=O` [Compound 2286, 4-[(2-chloro-4-methoxyphenyl)methyl]-1-[(2-chloro-7H-purin-8-yl)methyl]-3-ethyl-2,3-dihydro-1H-imidazol-2-one] as the compound, how does the pEC50 [3] read?
**A.** < 5.70
